In US12391676B2 (H. LEE MOFFITT CANCER CENTER AND RESEARCH INSTITUTE, INC., priority 2018, dated 2025):
“Also recorded” adds a separate entry of the source. Like-named read-outs stand apart in the source and are kept apart here.

Tests used:
JAK2 = JAK2 (Homo sapiens (Human), UniProt O60674); experiment: JAK2 IC50; format: biochemical
BRD4 [1] = molecular target: T1, BRD4 (Homo sapiens (Human), UniProt O60885); experiment: BRD4 DSF thermal shift (ΔTm); format: binding; details: for DSF ΔTm: Table 1; for BRD4 DSF (ΔTm): Table 2
BRD4-1 = BRD4-1 (Homo sapiens (Human), UniProt O60885); experiment: Estimated BRD4-1 IC50; format: binding; details: Table 1
c-Myc = details: background, literature; cited from earlier work
MM1.S cells = experiment: Antiproliferative activity, MM1.S cells; format: cell-based; details: Homo sapiens; for GI50: Table 2, read-out: GI50 (MM1S); for IC50: Table 1 comments
Summary of the method: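 MM.1S and MV4-11 AML cells were treated with compounds; c-Myc levels served as biomarker after 6-12 hr treatment, and antiproliferative activity was measured after 48-72 hr treatment.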

BRD4 [2] = molecular target: T1, BRD4; experiment: BRD4 IC50; format: binding; details: Table 2
UKE1 cells [3] = experiment: Growth inhibition GI50, UKE1 cells; format: cell-based
[4] = test system: BaF3-JAK2-V617F-luciferase cells; details: for median survival (post-treatment start): treated for 14 days
Procedure: Vehicle control and MA9-060 were administered orally twice daily at the indicated doses to Balb/c mice injected with BaF3-JAK2-V617F-luciferase cells. Mice were imaged for luciferase activity before (Day 0) and after 7 days of treatment (Tx) (FIG. 3A) with the mean total flux from target cells shown in (FIG. 3B).

UKE1 cells [5] = experiment: Drug persistence of UKE1 cells under escalating drug concentration; format: cell-based; details: for development of drug persistence: UKE1 cells started at GI20, concentration doubled if growth >90% of DMSO; for final drug concentration at the end of the experiment: drug persistence experiment
Procedure: UKE1 cells were incubated with DMSO, MA9-060, fedratinib, or ruxolitinib at their respective GI20 concentrations. Cell growth was compared to DMSO. Cells were passed back to the same density after counting. Drug concentration was doubled if growth was >90% of DMSO. Fold GI20 is plotted vs time, with drug persistence represented by upward steps of the lines. The final MA9-060, ruxolitinib, and fedratinib concentrations at the end of the experiment were 0.15, 0.6 and 2.4 uM, respectively. Fedratinib-treated cells lost complete viability after about 30 days (after 3 weeks in 2.4 uM).

[6] = test system: PBMCs from a JAK2-V617F+ myelofibrosis patient; experiment: Epo-independent erythroid colony (EEC) formation of primary MPN patient cells; details: colonies after 2 weeks, relative to DMSO, compared with fedratinib and ruxolitinib
Procedure: (§1) Colony formation was determined after 2 weeks and is indicated relative to no drug (DMSO).

[7] = test system: primary human hematopoietic progenitor cells; experiment: CFU-G/M colony formation of primary patient cells; format: cell-based; details: colonies after 2 weeks
Procedure: as §1

MV4-11 AML cells = details: background, literature; read-out: IC50, proliferation of MV4-11 AML cells; cited from earlier work
SET2 cells = experiment: Growth inhibition GI50, SET2 cells; format: cell-based; details: Homo sapiens, SET-2; Table 1 comments; unit printed only for the neighbouring values in the cell
[8] = Mouse microsome stability; format: in vitro ADME; details: Table 1 comments; meaning of % not stated
[9] = Human microsome stability; format: in vitro ADME; details: Table 1 comments; meaning of % not stated
BaF3-JAK2-VF cells = experiment: Growth inhibition GI50, BaF3-JAK2-VF cells; format: cell-based; details: Table 1 comments
[10] = UKE1, Table 2, read-out: GI50 (UKE1)

JAK2, sequence (O60674 whole entry): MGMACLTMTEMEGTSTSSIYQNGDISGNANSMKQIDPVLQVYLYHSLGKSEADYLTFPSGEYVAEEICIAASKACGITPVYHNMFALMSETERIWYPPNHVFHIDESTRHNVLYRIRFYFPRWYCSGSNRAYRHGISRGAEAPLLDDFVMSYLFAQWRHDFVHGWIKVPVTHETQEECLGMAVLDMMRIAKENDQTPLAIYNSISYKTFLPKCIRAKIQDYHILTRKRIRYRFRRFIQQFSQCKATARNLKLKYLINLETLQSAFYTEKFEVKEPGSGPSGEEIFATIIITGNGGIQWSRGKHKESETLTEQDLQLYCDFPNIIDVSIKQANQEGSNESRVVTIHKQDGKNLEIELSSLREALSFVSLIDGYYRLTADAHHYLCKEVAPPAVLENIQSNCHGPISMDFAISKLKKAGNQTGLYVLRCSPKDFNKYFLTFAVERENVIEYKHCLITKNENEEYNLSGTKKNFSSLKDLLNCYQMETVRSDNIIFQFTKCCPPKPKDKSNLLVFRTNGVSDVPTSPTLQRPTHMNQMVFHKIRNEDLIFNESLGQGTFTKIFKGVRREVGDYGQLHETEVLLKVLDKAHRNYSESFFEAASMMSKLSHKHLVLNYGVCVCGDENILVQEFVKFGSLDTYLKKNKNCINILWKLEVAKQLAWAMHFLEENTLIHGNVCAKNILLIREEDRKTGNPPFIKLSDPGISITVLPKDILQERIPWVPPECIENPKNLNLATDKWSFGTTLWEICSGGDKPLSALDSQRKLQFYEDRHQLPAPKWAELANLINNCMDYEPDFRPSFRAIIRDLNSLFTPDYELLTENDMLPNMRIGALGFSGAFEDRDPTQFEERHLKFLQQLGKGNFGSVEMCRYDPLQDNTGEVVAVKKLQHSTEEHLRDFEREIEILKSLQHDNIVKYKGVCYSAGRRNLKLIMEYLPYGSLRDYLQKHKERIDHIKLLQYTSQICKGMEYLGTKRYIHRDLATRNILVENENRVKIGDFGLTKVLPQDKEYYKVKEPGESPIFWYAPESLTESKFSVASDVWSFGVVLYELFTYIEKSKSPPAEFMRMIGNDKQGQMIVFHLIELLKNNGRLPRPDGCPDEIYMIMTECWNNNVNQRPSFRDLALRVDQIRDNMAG

## Cc1cnc(Nc2ccc(N3CCNCC3)c(F)c2)nc1Nc1ccc(Cl)c(NS(=O)(=O)C(C)(C)C)c1
JAK2; Table 1 comments, n = 2
  IC50: 2.73 nM
BRD4 [1]
  DSF ΔTm: 13 ± 0.05 °C
BRD4-1
  IC50: 1 nM

## Cc1cnc(Nc2ccc(N3CCN(CCCN)CC3)c(F)c2)nc1Nc1ccc(Cl)c(NS(=O)(=O)C(C)(C)C)c1
BRD4 [1]
  DSF ΔTm: 11 ± 0.02 °C
BRD4-1
  IC50: 4.6 nM

## Cc1cnc(Nc2ccc(N3CCN(CCCN)CC3)c(F)c2)nc1Nc1cccc(NS(=O)(=O)C(C)(C)C)c1
BRD4 [1]
  DSF ΔTm: 9.4 ± 0.09 °C
BRD4-1
  IC50: 15.7 nM

## CC[C@@H]1C(=O)N(C)c2cnc(Nc3ccc(C(=O)NC4CCN(C)CC4)cc3OC)nc2N1C1CCCC1 [BI2536]
c-Myc
  downregulation of c-Myc in MM.1S cells: strong downregulation

## Cc1cnc(Nc2ccc(C3CCN(C)CC3)cc2)nc1Nc1ccc(Cl)c(NS(=O)(=O)C(C)(C)C)c1 [MA9-050, N-(2-Chloro-5-((5-methyl-2-((4-(1-methylpiperidin-4-yl)phenyl)amino)pyrimidin-4-yl)amino)phenyl)-2-methylpropane-2-sulfonamide]
MM1.S cells
  GI50: 110 nM
JAK2; Table 2
  IC50: 8.2 nM
BRD4 [2]
  IC50: 143 nM
BRD4 [1]
  BRD4 DSF (ΔTm): 12.3 °C
UKE1 cells [3]; [10]
  GI50: 310 nM

## Cc1cnc(Nc2ccc(C3CCN(C)CC3)c(F)c2)nc1Nc1ccc(Cl)c(NS(=O)(=O)C(C)(C)C)c1 [MA9-060, N-(2-Chloro-5-((2-((3-fluoro-4-(1-methylpiperidin-4-yl)phenyl)amino)-5-methylpyrimidin-4-yl)amino)phenyl)-2-methylpropane-2-sulfonamide]
MM1.S cells
  GI50: 43 nM
JAK2; Table 2
  IC50: 3.3 nM
[4]; 10 mg/kg orally twice daily
  median survival (post-treatment start): 19 days
[4]; 25 mg/kg orally twice daily
  median survival (post-treatment start): 26 days
[4]; 25 mg/kg twice daily orally
  toxicity: No toxicity was detected
[4]; 50 mg/kg orally twice daily
  median survival (post-treatment start): 31 days
[4]; oral, twice daily, luciferase imaging
  inhibition of BaF3-JAK2-V617F-luciferase cells in Balb/c mice: dose-dependent inhibition
UKE1 cells [5]
  development of drug persistence: do not develop drug persistence; also recorded: could not escape a low concentration
UKE1 cells [5]; UKE1 cells
  final drug concentration at the end of the experiment: 0.15 µM
BRD4 [2]
  IC50: 26 nM
[6]
  inhibition of Epo-independent (neoplastic) erythroid colony (EEC) formation: more effective than Fedratinib or Ruxolitinib; also recorded: superior to fedratinib and ruxolitinib
BRD4 [1]
  BRD4 DSF (ΔTm): 14.5 °C
[7]
  effect on CFU-G/M colony growth: not affected; also recorded: Little effect
UKE1 cells [3]; [10]
  GI50: 150 nM

## Cc1cnc(Nc2cc(F)cc(N3CCN(C)CC3)c2)nc1Nc1ccc(Cl)c(NS(=O)(=O)C(C)(C)C)c1 [MA9-062, N-(2-Chloro-5-((2-((3-fluoro-5-(4-methylpiperazin-1-yl)phenyl)amino)-5-methylpyrimidin-4-yl)amino)phenyl)-2-methylpropane-2-sulfonamide]
MM1.S cells
  GI50: 160 nM
JAK2; Table 2
  IC50: 17 nM
BRD4 [2]
  IC50: 49 nM
BRD4 [1]
  BRD4 DSF (ΔTm): 11.3 °C

## Cc1cnc(Nc2ccc(C3CCN(C)CC3)c(F)c2)nc1Nc1ccc2c(c1)N(S(=O)(=O)C(C)(C)C)CC2 [MA9-086, N4-(1-(Tert-butylsulfonyl)indolin-6-yl)-N2-(3-fluoro-4-(1-methylpiperidin-4-yl)phenyl)-5-methylpyrimidine-2,4-diamine]
MM1.S cells
  GI50: 194 nM
JAK2; Table 2
  IC50: 1.1 nM
BRD4 [2]
  IC50: 6.4 nM
BRD4 [1]
  BRD4 DSF (ΔTm): 13.4 °C

## Cc1cnc(Nc2ccc(N3CCN(C)CC3)c(F)c2)cc1Nc1cccc(NS(=O)(=O)C(C)(C)C)c1 [SY3-005, N-(3-((2-((3-Fluoro-4-(4-methylpiperazin-1-yl)phenyl)amino)-5-methylpyridin-4-yl)amino)phenyl)-2-methylpropane-2-sulfonamide]
MM1.S cells
  GI50: 3310 nM
JAK2; Table 2
  IC50: > 1000 nM
BRD4 [2]
  IC50: 3960 nM
BRD4 [1]
  BRD4 DSF (ΔTm): 6.0 °C
UKE1 cells [3]; [10]
  GI50: 5300 nM

## Cc1cnc(Nc2ccc(C3CCN(C)CC3)c(F)c2)nc1Nc1cccc(NS(=O)(=O)C(C)(C)C)c1 [SY3-038, N-(3-((2-((3-Fluoro-4-(1-methylpiperidin-4-yl)phenyl)amino)-5-methylpyrimidin-4-yl)amino)phenyl)-2-methylpropane-2-sulfonamide]
JAK2; Table 2
  IC50: 0.7 nM
BRD4 [2]
  IC50: 87 nM
BRD4 [1]
  BRD4 DSF (ΔTm): 12.3 °C
UKE1 cells [3]; [10]
  GI50: 64 nM

## Cc1cnc(Nc2cc(F)cc(N3CCN(C)CC3)c2)nc1Nc1cccc(NS(=O)(=O)C(C)(C)C)c1 [SY3-040, N-(3-((2-((3-Fluoro-5-(4-methylpiperazin-1-yl)phenyl)amino)-5-methylpyrimidin-4-yl)amino)phenyl)-2-methylpropane-2-sulfonamide]
MM1.S cells
  GI50: 220 nM
JAK2; Table 2
  IC50: 3.1 nM
BRD4 [2]
  IC50: 127 nM
BRD4 [1]
  BRD4 DSF (ΔTm): 11.1 °C

## Cc1cnc(Nc2ccc(N3CCN(C)CC3)cc2)nc1Nc1cccc(S(=O)(=O)NC(C)(C)C)c1 [TG101209]
c-Myc
  downregulation of c-Myc in MM.1S cells: strong downregulation

## Cc1cnc(Nc2ccc(OCCN3CCCC3)cc2)nc1Nc1cccc(S(=O)(=O)NC(C)(C)C)c1 [TG101348]
MV4-11 AML cells
  IC50: 79 nM
c-Myc
  downregulation of c-Myc in MM.1S cells: strong downregulation

## Cc1cnc(Nc2ccc(C3CCN(C)CC3)c(F)c2)nc1Nc1ccc(Cl)c(NS(=O)(=O)C(C)(C)C)c1 [drawing 9]
MM1.S cells
  IC50: 43 nM
SET2 cells
  GI50: 54 nM
[8]
  Mouse microsome: 100%
[9]
  Human microsome: 42.6%
BRD4 [1]
  DSF ΔTm: 14.2 °C
BaF3-JAK2-VF cells
  GI50: 28 nM

## Cc1cnc(Nc2ccc(C3CCN(C)CC3)cc2)nc1Nc1ccc(Cl)c(NS(=O)(=O)C(C)(C)C)c1 [drawing 11]
MM1.S cells
  IC50: 110 nM
SET2 cells
  GI50: 240 nM
[8]
  Mouse microsome: 81%
BRD4 [1]
  DSF ΔTm: 12.3 °C
BaF3-JAK2-VF cells
  GI50: 99 nM
UKE1 cells [3]; Table 1 comments, read-out: GI50 (UKE1 cells)
  GI50: 340 nM
UKE1 cells [3]; UKE1, Table 1 comments, read-out: GI50 (UKE1 cells)
  GI50: 280 nM

## Cc1cnc(Nc2ccc(OCCN3CCCC3)cc2)nc1Nc1cccc(S(=O)(=O)NC(C)(C)C)c1 [fedratinib]
UKE1 cells [5]
  development of drug persistence: persistently grew in increasing concentrations
UKE1 cells [5]; UKE1 cells, after 3 weeks in 2.4 uM
  time until treated cells lost complete viability: about 30 days
UKE1 cells [5]; UKE1 cells
  final drug concentration at the end of the experiment: 2.4 µM

## N#CC[C@H](C1CCCC1)n1cc(-c2ncnc3[nH]ccc23)cn1 [ruxolitinib]
UKE1 cells [5]
  development of drug persistence: persistently grew in increasing concentrations
UKE1 cells [5]; UKE1 cells
  final drug concentration at the end of the experiment: 0.6 µM
